{"source": "paper PMC4774911", "about": "“Biochemical Screening of Five Protein Kinases from Plasmodium falciparum against 14,000 Cell-Active Compounds” (PLoS ONE, 2016)", "assay_in_all_cases": "biochemical", "set-up_in_all_cases": "endogenous in cells; host or cells: K562 cell extract; species or system K562 (extract); replicate k of n = 2 (each experiment ID is one independent experiment; two experiment IDs per compound)", "details_in_all_cases": "read-out: KDapp", "key": {"[1]": {"target": "CAMKK2 (Homo sapiens, UniProt Q96RR4)", "sequence (Q96RR4 whole entry)": "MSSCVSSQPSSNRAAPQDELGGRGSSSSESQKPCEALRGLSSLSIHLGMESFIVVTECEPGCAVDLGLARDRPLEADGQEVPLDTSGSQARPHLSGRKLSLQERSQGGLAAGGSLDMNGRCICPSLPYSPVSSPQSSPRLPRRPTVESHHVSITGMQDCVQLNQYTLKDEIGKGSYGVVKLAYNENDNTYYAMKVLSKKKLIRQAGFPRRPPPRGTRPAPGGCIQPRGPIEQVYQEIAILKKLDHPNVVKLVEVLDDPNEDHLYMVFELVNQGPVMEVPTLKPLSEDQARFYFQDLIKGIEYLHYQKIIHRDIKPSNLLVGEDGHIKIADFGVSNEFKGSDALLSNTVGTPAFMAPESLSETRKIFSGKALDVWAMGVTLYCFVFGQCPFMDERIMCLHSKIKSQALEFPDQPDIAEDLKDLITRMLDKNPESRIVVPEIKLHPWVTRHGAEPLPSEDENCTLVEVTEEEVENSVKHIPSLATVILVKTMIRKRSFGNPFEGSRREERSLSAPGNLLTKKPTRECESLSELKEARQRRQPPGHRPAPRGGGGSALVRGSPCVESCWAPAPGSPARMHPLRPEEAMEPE"}, "[2]": {"target": "MAP3K11 (Homo sapiens, UniProt Q16584)", "sequence (Q16584 whole entry)": "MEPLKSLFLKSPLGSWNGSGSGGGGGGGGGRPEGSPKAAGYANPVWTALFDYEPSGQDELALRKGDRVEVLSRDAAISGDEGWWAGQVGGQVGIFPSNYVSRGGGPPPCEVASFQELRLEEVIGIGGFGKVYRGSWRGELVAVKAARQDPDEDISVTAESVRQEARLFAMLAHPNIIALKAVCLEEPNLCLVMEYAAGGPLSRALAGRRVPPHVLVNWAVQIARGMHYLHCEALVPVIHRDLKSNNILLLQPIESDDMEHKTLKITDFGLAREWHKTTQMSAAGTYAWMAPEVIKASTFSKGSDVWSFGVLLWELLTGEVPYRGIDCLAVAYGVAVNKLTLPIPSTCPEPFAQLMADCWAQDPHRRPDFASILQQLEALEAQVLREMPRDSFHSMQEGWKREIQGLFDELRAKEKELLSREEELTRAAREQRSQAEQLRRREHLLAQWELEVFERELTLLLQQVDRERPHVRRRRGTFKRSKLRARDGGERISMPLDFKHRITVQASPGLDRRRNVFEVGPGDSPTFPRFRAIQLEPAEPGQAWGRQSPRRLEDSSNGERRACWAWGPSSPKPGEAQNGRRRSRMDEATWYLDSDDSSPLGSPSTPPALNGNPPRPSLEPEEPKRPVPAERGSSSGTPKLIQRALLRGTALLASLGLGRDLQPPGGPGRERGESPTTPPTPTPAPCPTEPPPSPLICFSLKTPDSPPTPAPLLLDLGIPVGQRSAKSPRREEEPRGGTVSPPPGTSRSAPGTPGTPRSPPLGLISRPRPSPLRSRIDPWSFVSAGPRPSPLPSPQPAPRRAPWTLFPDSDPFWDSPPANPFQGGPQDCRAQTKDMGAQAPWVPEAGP"}, "[3]": {"target": "MARK3 (Homo sapiens, UniProt P27448)", "sequence (P27448 whole entry)": "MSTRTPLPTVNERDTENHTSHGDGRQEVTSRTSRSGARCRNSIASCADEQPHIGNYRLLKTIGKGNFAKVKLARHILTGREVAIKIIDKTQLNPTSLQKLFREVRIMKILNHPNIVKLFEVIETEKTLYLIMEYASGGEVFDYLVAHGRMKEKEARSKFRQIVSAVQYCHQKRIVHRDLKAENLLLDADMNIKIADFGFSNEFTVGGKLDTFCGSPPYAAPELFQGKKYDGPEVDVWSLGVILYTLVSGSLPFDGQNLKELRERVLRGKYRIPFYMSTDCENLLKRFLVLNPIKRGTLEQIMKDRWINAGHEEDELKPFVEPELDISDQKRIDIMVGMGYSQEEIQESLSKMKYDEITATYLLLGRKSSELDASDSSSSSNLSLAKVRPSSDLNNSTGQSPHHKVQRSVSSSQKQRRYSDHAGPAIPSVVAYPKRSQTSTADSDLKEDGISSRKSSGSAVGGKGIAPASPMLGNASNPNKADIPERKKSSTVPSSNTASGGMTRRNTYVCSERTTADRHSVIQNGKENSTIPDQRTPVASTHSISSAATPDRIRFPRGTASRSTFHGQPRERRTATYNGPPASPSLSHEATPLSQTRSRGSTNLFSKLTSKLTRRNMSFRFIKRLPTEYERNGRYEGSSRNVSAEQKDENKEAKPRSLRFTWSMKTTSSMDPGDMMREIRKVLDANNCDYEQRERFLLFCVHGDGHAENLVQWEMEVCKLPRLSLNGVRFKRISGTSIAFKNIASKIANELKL"}, "[4]": {"target": "T1, MYLK3 (Homo sapiens, UniProt Q32MK0)", "T1 sequence (Q32MK0 1-819)": "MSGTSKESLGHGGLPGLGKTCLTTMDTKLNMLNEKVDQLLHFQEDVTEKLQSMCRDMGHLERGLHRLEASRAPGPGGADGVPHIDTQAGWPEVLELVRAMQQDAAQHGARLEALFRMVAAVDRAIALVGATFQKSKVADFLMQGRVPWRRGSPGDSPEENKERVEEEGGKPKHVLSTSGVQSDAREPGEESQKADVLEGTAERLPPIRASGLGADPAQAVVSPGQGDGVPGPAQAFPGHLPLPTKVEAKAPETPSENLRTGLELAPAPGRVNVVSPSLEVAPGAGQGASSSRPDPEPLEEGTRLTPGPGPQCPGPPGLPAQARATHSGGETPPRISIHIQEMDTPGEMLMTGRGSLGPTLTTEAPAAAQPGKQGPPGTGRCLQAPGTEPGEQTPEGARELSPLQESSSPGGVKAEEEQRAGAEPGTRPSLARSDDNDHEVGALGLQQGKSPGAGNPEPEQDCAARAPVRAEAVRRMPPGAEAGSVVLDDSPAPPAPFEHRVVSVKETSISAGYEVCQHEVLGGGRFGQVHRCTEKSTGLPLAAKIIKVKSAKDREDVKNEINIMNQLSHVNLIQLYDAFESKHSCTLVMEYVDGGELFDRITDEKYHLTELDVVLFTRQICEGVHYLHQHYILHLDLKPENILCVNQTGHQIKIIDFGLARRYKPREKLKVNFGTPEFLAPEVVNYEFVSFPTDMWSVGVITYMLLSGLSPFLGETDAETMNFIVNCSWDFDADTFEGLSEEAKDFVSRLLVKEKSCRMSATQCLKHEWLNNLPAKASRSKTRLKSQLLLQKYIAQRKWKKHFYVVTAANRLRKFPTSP"}, "[5]": {"target": "T2, PIP4K2B (Homo sapiens, UniProt P78356)", "T2 sequence (P78356 1-416)": "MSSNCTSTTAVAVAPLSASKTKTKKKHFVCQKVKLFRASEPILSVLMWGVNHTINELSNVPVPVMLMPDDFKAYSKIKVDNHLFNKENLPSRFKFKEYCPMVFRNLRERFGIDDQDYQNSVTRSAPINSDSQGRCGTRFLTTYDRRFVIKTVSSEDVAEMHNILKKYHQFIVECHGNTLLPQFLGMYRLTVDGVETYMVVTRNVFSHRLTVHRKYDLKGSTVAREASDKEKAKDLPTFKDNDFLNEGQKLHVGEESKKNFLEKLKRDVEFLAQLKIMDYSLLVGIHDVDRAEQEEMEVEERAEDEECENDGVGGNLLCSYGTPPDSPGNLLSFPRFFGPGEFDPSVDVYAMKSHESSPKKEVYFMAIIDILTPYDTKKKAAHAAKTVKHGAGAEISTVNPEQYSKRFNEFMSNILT"}, "[6]": {"target": "PTK2B (Homo sapiens, UniProt Q14289)", "sequence (Q14289 whole entry)": "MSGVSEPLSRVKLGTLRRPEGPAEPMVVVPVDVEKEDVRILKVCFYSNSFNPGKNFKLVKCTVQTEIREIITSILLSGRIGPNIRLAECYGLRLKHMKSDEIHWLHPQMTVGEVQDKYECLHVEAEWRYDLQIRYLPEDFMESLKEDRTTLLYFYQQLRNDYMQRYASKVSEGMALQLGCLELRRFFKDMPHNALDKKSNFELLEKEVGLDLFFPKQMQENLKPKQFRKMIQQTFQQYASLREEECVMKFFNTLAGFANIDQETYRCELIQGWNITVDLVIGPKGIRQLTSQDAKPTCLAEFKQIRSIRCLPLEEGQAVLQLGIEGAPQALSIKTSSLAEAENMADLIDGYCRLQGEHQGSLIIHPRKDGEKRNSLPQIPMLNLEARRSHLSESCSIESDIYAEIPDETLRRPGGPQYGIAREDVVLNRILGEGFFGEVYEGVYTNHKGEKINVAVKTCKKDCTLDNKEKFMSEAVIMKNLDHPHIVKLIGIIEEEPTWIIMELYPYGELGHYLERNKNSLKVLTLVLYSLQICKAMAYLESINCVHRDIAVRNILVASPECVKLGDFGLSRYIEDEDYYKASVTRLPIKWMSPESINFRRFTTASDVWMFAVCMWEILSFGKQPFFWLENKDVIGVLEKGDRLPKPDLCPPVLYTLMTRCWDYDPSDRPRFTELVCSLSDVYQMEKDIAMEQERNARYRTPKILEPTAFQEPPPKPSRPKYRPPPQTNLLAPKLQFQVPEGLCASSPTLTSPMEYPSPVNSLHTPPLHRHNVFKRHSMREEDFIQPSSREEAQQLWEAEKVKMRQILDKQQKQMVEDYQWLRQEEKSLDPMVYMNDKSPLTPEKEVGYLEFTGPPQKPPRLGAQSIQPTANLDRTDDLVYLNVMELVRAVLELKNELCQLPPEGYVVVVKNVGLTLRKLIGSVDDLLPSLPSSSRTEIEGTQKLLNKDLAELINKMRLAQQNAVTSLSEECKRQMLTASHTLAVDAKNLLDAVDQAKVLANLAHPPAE"}, "[7]": {"target": "STK39 (Homo sapiens, UniProt Q9UEW8)"}, "[8]": {"target": "FYN (Homo sapiens, UniProt P06241)", "sequence (P06241 whole entry)": "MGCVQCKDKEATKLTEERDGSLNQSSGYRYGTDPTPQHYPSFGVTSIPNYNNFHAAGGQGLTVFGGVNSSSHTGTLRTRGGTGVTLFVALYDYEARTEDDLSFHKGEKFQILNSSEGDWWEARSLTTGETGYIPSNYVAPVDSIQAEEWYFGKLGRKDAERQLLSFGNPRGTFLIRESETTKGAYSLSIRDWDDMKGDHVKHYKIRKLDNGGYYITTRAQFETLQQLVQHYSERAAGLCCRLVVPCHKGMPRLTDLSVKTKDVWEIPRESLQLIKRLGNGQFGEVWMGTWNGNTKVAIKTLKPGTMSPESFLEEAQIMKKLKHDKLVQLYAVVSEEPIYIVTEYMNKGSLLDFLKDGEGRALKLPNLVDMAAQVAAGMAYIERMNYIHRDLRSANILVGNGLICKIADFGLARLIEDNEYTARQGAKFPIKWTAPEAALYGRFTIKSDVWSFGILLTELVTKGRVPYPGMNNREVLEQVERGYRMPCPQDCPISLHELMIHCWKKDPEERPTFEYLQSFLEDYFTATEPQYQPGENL"}, "[9]": {"target": "PRKCD (Homo sapiens, UniProt Q05655)", "sequence (Q05655 whole entry)": "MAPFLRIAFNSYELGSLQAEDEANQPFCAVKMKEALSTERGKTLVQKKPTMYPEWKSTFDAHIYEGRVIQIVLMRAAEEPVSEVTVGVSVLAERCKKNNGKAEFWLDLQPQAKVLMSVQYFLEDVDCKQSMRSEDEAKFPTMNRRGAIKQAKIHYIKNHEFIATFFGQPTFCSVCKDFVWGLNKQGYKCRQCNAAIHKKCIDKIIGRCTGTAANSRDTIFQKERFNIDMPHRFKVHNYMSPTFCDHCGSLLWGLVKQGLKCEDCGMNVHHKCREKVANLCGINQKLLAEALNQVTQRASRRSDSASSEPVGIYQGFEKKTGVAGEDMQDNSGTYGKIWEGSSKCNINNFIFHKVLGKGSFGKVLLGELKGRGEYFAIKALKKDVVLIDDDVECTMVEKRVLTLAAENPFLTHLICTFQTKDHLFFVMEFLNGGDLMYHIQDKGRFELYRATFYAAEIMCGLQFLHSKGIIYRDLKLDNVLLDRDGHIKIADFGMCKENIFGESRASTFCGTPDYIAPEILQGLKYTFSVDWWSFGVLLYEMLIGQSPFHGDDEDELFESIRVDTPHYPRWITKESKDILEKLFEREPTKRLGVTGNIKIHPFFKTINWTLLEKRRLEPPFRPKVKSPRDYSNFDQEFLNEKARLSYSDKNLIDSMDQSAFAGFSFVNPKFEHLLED"}}, "note": "Values joined by “and” are separate entries in the source; they are usually repeats but may differ in a detail not shown here. Equal entries are not always repeated.", "data": [{"smiles": "CN(C)CC(O)COc1ccc(Nc2ncc([N+](=O)[O-])c(Nc3ccccc3O)n2)cc1.O=C(O)C(F)(F)F", "note": "(stereo not drawn) [TCMDC-141399]", "values": [{"measurement": "Kd", "setting": "[1]", "value": "1.94 µM and 2.04 µM"}, {"measurement": "Kd", "setting": "[2]", "value": "0.728 µM and 0.328 µM"}, {"measurement": "Kd", "setting": "[3]", "value": "5.55 µM and 3.66 µM"}, {"measurement": "Kd", "setting": "[4]", "value": "1.76 µM and 1.51 µM"}, {"measurement": "Kd", "setting": "[5]", "value": "0.684 µM and 0.987 µM"}, {"measurement": "Kd", "setting": "[6]", "value": "0.128 µM and 0.175 µM"}, {"measurement": "Kd", "setting": "[7]", "value": 4.76, "unit": "µM"}]}, {"smiles": "Cl.NCC1(c2nc(-c3ccc(Cl)c(O)c3)c(-c3ccncc3)[nH]2)CCCCC1", "note": "[TCMDC-141154]", "values": [{"measurement": "Kd", "setting": "[8]", "value": "0.0676 µM and 0.0605 µM"}, {"measurement": "Kd", "setting": "[9]", "value": 0.806, "unit": "µM"}]}, {"smiles": "CN1CCN(c2ccc(Nc3ncc(C#N)c(Nc4ccccc4C(N)=O)n3)cc2)CC1.Cl", "note": "[TCMDC-134116]", "values": [{"measurement": "Kd", "setting": "[1]", "value": "0.131 µM and 0.139 µM"}, {"measurement": "Kd", "setting": "[8]", "value": "0.107 µM and 0.0854 µM"}, {"measurement": "Kd", "setting": "[2]", "value": 0.0463, "unit": "µM"}, {"measurement": "Kd", "setting": "[3]", "value": "0.0666 µM and 0.0777 µM"}, {"measurement": "Kd", "setting": "[4]", "value": "0.056 µM and 0.0778 µM"}, {"measurement": "Kd", "setting": "[5]", "value": "1.13 µM and 0.705 µM"}, {"measurement": "Kd", "setting": "[9]", "value": 0.685, "unit": "µM"}, {"measurement": "Kd", "setting": "[6]", "value": "0.0281 µM and 0.0353 µM"}, {"measurement": "Kd", "setting": "[7]", "value": 0.058, "unit": "µM"}]}]}
